# Laboratory results reported in patent US4015974A, “Amido phosphorothiolates” (priority 1972, dated 1977).
# Legend:
# Assay type in all cases: in vivo
# [1] = tested on: broad-leaved weeds, e.g., monochoria, false pimpernel and toothcup; experiment: Water application, herbicidal effect on broad-leaved weeds (Table 2); design: key: 0: not damaged; 5: completely killed; conditions: 25 days, score 0-5
# Procedure, shortened: (§1)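 Under water-lodged conditions, wettable-powder test compounds are applied to paddy soil carrying transplanted rice (3-leaf) and sown barnyard grass. Activity on these and on spontaneously emerged broad-leaved weeds is graded 0 to 5 twenty-five days later.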
# [2] = tested on: barnyard grass (Echinochloa crus-galli); experiment: Pre-emergence application, herbicidal effect on barnyard grass (Table 1); design: key: 0: not damaged; 5: completely killed; conditions: 20 days after application, score 0-5
# Procedure, shortened: (§2)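 Pre-emergence soil application of wettable powders diluted in water over covered seeds (~10 cm pots). Greenhouse growth; visual 0–5 rating (0 none, 5 dead) at 20 days.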
# rice = experiment: Water application, phytotoxicity on rice (Table 2); design: key: 0: no effect; 1: very slightly affected; 2: slightly affected; 3: moderately affected; 4: considerably affected; 5: completely killed; conditions: 25 days, score 0-5
# Procedure, shortened: as §1
# [3] = tested on: common lambsquarter (Chenopodium album); experiment: Pre-emergence application, herbicidal effect on common lambsquarter (Table 1); design: key: 0: not damaged; 5: completely killed; conditions: 20 days after application, score 0-5
# Procedure, shortened: as §2
# [4] = tested on: barnyard grass (Echinochloa crus-galli); experiment: Water application, herbicidal effect on barnyard grass (Table 2); design: key: 0: not damaged; 5: completely killed; conditions: 25 days, score 0-5
# Procedure, shortened: as §1
# nematode = experiment: Effect on nematode (Table 7); design: tested at 500 ppm; conditions: 500 p.p.m., 24 hours
# Experimental: 0.5 ml. of a nematode-containing aqueous solution separated from food according to Baermann's method was placed in a test tube with ground stopper containing 0.5 ml. of an aqueous dilute solution of each emulsifiable concentrates of the present compounds. The concentration of the active ingredient in the mixture was adjusted to 500 p.p.m. After 24 hours, the death and alive were observed microscopically to calculate the mortality.
# [5] = tested on: redroot pigweed (Amaranthus retroflexus); experiment: Pre-emergence application, herbicidal effect on redroot pigweed (Table 1); design: key: 0: not damaged; 5: completely killed; conditions: 20 days after application, score 0-5
# Procedure, shortened: as §2
# radish = experiment: Pre-emergence application, herbicidal effect on radish (Table 1); design: key: 0: not damaged; 5: completely killed; conditions: 20 days after application, score 0-5
# Procedure, shortened: as §2
# [6] = tested on: large crabgrass (Digitaria sanguinalis); experiment: Pre-emergence application, herbicidal effect on large crabgrass (Table 1); design: key: 0: not damaged; 5: completely killed; conditions: 20 days after application, score 0-5
# Procedure, shortened: as §2
# [7] = tested on: tobacco cut worm (Spondoptera litura); experiment: Lethal effect on tobacco cut worm (Table 5); conditions: tobacco cutworm, larvae on chinese cabbage leaves, 48 h
# Experimental: The present compounds of an emulsifiable concentrate type were applied to leaves of chinese cabbage in the form of an 1000 fold dilute solution. After air-drying, third to fourth instar larvae of tobacco cut worm were released and after 48 hours the death and alive were observed.
# [8] = tested on: common purslane (Portulaca oleracea); experiment: Pre-emergence application, herbicidal effect on common purslane (Table 1); design: key: 0: not damaged; 5: completely killed; conditions: 20 days after application, score 0-5
# Procedure, shortened: as §2
# [9] = tested on: carmine mite (Tetranychus telarius); experiment: Lethal effect on carmine mite, degree of damage on kidney beans (Table 4); design: key: -: damage is hardly increased.; +: damage is slightly increased.; ++: damage is fairly increased.; +++: damage is heavily increased; conditions: 25% wettable powder, 200 fold dilute solution, another week after application
# Source text: About 50 carmine mite adults were made parasitic on leaves of potted kidney beans at a 2-leaves stage which had elapsed 10 days after swing. After a week, the present compounds of a 25% wettable powder type were each applied in the form of a 200 fold dilute solution.
# [10] = tested on: rice stem borer (Chilo suppressalis); experiment: Lethal effect on rice stem borer (Table 6); conditions: 50 % emulsifiable concentrate, 1000 fold dilute solution, 4 days after application
# Source text: Eggs just before hatch of the rice stem borer were applied in a ratio of 100/pot near the root of rice plants grown up into the tillering stage in an […] Wagner's pot. After eggs were hatched and the larvae entered into stems of rice plants, an 1000 fold dilute solution of each 50 % emulsifiable concentrates of the present compounds was applied by means of a turn table.
# [11] = tested on: carmine mite (Tetranychus telavius); experiment: Lethal effect on carmine mite, leaf dipping (Table 3); conditions: foliar, 48 h
# Procedure, shortened: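 Kidney bean leaves (2-leaf stage) infested with adult mites dipped 1 min in aqueous wettable-powder solutions. Mortality counted microscopically after 48 h; LC50 derived from mortality.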
SMILES,"Herbicidal effects, broad-leaved weeds ([1]; 10 g/a)","Herbicidal effects, broad-leaved weeds ([1]; 20 g/a)","Herbicidal effects, broad-leaved weeds ([1]; 40 g/a)","Herbicidal effect, barnyard grass ([2]; 10 g./a.)","Herbicidal effect, barnyard grass ([2]; 20 g./a.)","Herbicidal effect, barnyard grass ([2]; 40 g./a.)",Phytotoxicity on rice (rice; 10 g/a),Phytotoxicity on rice (rice; 20 g/a),Phytotoxicity on rice (rice; 40 g/a),"Herbicidal effect, common lambsquarter ([3]; 10 g./a.)","Herbicidal effect, common lambsquarter ([3]; 20 g./a.)","Herbicidal effect, common lambsquarter ([3]; 40 g./a.)","Herbicidal effects, barnyard grass ([4]; 10 g/a)","Herbicidal effects, barnyard grass ([4]; 20 g/a)","Herbicidal effects, barnyard grass ([4]; 40 g/a)","Herbicidal effect, redroot pigweed ([5]; 10 g./a.)","Herbicidal effect, redroot pigweed ([5]; 20 g./a.)","Herbicidal effect, redroot pigweed ([5]; 40 g./a.)","Herbicidal effect, radish (radish; 10 g./a.)","Herbicidal effect, radish (radish; 20 g./a.)",further results
CCOP(=O)(SCC(=O)N1CCCCC1C)SCc1ccc(C(C)(C)C)cc1 (centres unmarked) [Compound 50],5,5,5,5,5,5,0,0,1,5,5,5,5,5,5,5,5,5,0,1,"Mortality (nematode): 100%; Herbicidal effect, radish (radish; 40 g./a.): 2; Herbicidal effect, large crabgrass ([6]; 10 g./a.): 5; Herbicidal effect, large crabgrass ([6]; 20 g./a.): 5; Herbicidal effect, large crabgrass ([6]; 40 g./a.): 5; Mortality [7]: 81.2%; Herbicidal effect, common purslane ([8]; 10 g./a.): 5; Herbicidal effect, common purslane ([8]; 20 g./a.): 5; Herbicidal effect, common purslane ([8]; 40 g./a.): 5"
CCOP(=O)(SCC(=O)N1CCCCC1C)SCc1ccc(Cl)c(Cl)c1 (centres unmarked) [Compound 61],,,,,,,,,,,,,,,,,,,,,Degree of damage [9]: -
CCOP(=O)(SCC(=O)N1CCCCC1C)SC(C)CC (centres unmarked) [Compound 5],5,5,5,5,5,5,0,0,0,5,5,5,5,5,5,5,5,5,0,0,"Mortality [10]: 88.9%; Mortality (nematode): 100%; LC50 [11]: 7.9 µg/mL; Herbicidal effect, radish (radish; 40 g./a.): 0; Herbicidal effect, large crabgrass ([6]; 10 g./a.): 5; Herbicidal effect, large crabgrass ([6]; 20 g./a.): 5; Herbicidal effect, large crabgrass ([6]; 40 g./a.): 5; Mortality [7]: 70.0%; Herbicidal effect, common purslane ([8]; 10 g./a.): 5; Herbicidal effect, common purslane ([8]; 20 g./a.): 5; Herbicidal effect, common purslane ([8]; 40 g./a.): 5"
CCOP(=O)(SCCc1ccc(Cl)cc1)SCC(=O)N1CCCCC1C (centres unmarked) [Compound 60],,,,,,,,,,,,,,,,,,,,,Degree of damage [9]: -
CCOP(=O)(SCC(=O)N1CCCCC1CC)SCc1ccc(CC)cc1 (centres unmarked) [Compound 58],5,5,5,4,5,5,0,0,0,3,4,4,5,5,5,3,4,5,0,0,"Herbicidal effect, radish (radish; 40 g./a.): 0; Herbicidal effect, large crabgrass ([6]; 10 g./a.): 5; Herbicidal effect, large crabgrass ([6]; 20 g./a.): 5; Herbicidal effect, large crabgrass ([6]; 40 g./a.): 5; Mortality [7]: 72.0%; Herbicidal effect, common purslane ([8]; 10 g./a.): 3; Herbicidal effect, common purslane ([8]; 20 g./a.): 4; Herbicidal effect, common purslane ([8]; 40 g./a.): 5"
CCOP(=O)(SCC(=O)N1CCCCC1C)SCc1ccc(CC)cc1 (centres unmarked) [Compound 53],5,5,5,4,5,5,0,0,0,3,3,4,5,5,5,3,4,5,0,0,"Degree of damage [9]: -~+; Mortality (nematode): 83.6%; Herbicidal effect, radish (radish; 40 g./a.): 0; Herbicidal effect, large crabgrass ([6]; 10 g./a.): 5; Herbicidal effect, large crabgrass ([6]; 20 g./a.): 5; Herbicidal effect, large crabgrass ([6]; 40 g./a.): 5; Herbicidal effect, common purslane ([8]; 10 g./a.): 3; Herbicidal effect, common purslane ([8]; 20 g./a.): 3; Herbicidal effect, common purslane ([8]; 40 g./a.): 5"
